“And” between values parts separate entries of the source, which are not always exact repeats. Equal values may be shown once. “Also recorded” adds a separate entry of the source. Read-outs that look alike come from different tables or passages of the source.
What was measured:
Format in all cases: cell-based
[1] = target: α4β2 nAChR from β-21a-α^VFL-α-β-α (Homo sapiens, UniProt P17787+P43681, H142V/Q150F/T152L); assay: two-electrode voltage-clamp, oocytes, pentameric β-21a-α^VFL-α-β-α
[2] = target: α4β2 nAChR from β-6-α-9-β-6-α and α4^VFL (1:5) (Homo sapiens, UniProt P17787+P43681, H142V/Q150F/T152L); assay: two-electrode voltage-clamp, oocytes, β-6-α-9-β-6-α and α4^VFL 1:5
[3] = target: α4β2 nAChR from β-3a-α and α4^VFL (1:1) (Homo sapiens, UniProt P17787+P43681, H142V/Q150F/T152L); assay: two-electrode voltage-clamp, oocytes, β-3a-α and α4^VFL
[4] = target: α4β2 nAChR from β-9a-α alone (Homo sapiens, UniProt P17787+P43681); assay: two-electrode voltage-clamp, oocytes, β-9a-α alone
[5] = target: α4β2 nAChR from β-3a-α^VFL-β-α-α (Homo sapiens, UniProt P17787+P43681, H142V/Q150F/T152L); assay: two-electrode voltage-clamp, oocytes, pentameric β-3a-α^VFL-β-α-α
[6] = target: (α4^VFL)3(β2)2 nAChR from α4^VFL and β2 (10:1) (Homo sapiens, UniProt P17787+P43681, H142V/Q150F/T152L); assay: two-electrode voltage-clamp, X. laevis oocytes, α4^VFL and β2 cRNA 10:1
[7] = target: α4β2 nAChR from β-0a-α and α4^VFL (1:1) (Homo sapiens, UniProt P17787+P43681, H142V/Q150F/T152L); assay: two-electrode voltage-clamp, oocytes, β-0a-α and α4^VFL; details: β-0a-α + α4^VFL
[8] = target: α4β2 nAChR from β-3a-α-β-α-α^VFL (Homo sapiens, UniProt P17787+P43681, H142V/Q150F/T152L); assay: two-electrode voltage-clamp, oocytes, pentameric β-3a-α-β-α-α^VFL
[9] = target: α4β2 nAChR from β-21a-α-α-β-α (Homo sapiens, UniProt P17787+P43681); assay: two-electrode voltage-clamp, oocytes, pentameric β-21a-α-α-β-α
[10] = target: α4β2 nAChR from β-9a-α and α4 (1:1) (Homo sapiens, UniProt P17787+P43681); assay: two-electrode voltage-clamp, oocytes, β-9a-α and α4
[11] = target: α4β2 nAChR from β-21a-α-α^VFL-β-α (Homo sapiens, UniProt P17787+P43681, H142V/Q150F/T152L); assay: two-electrode voltage-clamp, oocytes, pentameric β-21a-α-α^VFL-β-α
[12] = target: α4β2 nAChR from β-3a-α-β-α-α (Homo sapiens, UniProt P17787+P43681); assay: two-electrode voltage-clamp, oocytes, pentameric β-3a-α-β-α-α
[13] = target: α4β2 nAChR from β-6-α-9-β-6-α and α4^VFL (1:1) (Homo sapiens, UniProt P17787+P43681, H142V/Q150F/T152L); assay: two-electrode voltage-clamp, oocytes, β-6-α-9-β-6-α and α4^VFL 1:1
[14] = target: α4β2 nAChR from β-21a-α-β-α-α (Homo sapiens, UniProt P17787+P43681); assay: two-electrode voltage-clamp, oocytes, pentameric β-21a-α-β-α-α
[15] = target: α4β2 nAChR from β-3a-α^VFL-α-β-α (Homo sapiens, UniProt P17787+P43681, H142V/Q150F/T152L); assay: two-electrode voltage-clamp, oocytes, pentameric β-3a-α^VFL-α-β-α
[16] = target: α4β2 nAChR from β-6a-α and α4^VFL (1:1) (Homo sapiens, UniProt P17787+P43681, H142V/Q150F/T152L); assay: two-electrode voltage-clamp, oocytes, β-6a-α and α4^VFL
[17] = target: α4β2 nAChR from β-21a-α-β-α-α^VFL (Homo sapiens, UniProt P17787+P43681, H142V/Q150F/T152L); assay: two-electrode voltage-clamp, oocytes, pentameric β-21a-α-β-α-α^VFL
[18] = target: α4β2 nAChR from β-6-α and α4^VFL (1:1) (Homo sapiens, UniProt P17787+P43681, H142V/Q150F/T152L); assay: two-electrode voltage-clamp, oocytes, β-6-α and α4^VFL 1:1; details: β-6-α + α4^VFL 1:1
[19] = target: α4β2 nAChR from β-9a-α and α4^VFL (1:1) (Homo sapiens, UniProt P17787+P43681, H142V/Q150F/T152L); assay: two-electrode voltage-clamp, oocytes, β-9a-α and α4^VFL
[20] = target: α4β2 nAChR from β-6-α-9-β-6-α alone (Homo sapiens, UniProt P17787+P43681); assay: two-electrode voltage-clamp, oocytes, tetrameric β-6-α-9-β-6-α alone
[21] = target: α4β2 nAChR from β-6-α and α4 (1:1) (Homo sapiens, UniProt P17787+P43681); assay: two-electrode voltage-clamp, oocytes, β-6-α and α4; details: β-6-α + α4
[22] = […] NS9283 + 10 µM ACh, % change from AChcontrol current

Sequence of α4β2 nAChR from β-6-α-9-β-6-α alone (P43681 27-627): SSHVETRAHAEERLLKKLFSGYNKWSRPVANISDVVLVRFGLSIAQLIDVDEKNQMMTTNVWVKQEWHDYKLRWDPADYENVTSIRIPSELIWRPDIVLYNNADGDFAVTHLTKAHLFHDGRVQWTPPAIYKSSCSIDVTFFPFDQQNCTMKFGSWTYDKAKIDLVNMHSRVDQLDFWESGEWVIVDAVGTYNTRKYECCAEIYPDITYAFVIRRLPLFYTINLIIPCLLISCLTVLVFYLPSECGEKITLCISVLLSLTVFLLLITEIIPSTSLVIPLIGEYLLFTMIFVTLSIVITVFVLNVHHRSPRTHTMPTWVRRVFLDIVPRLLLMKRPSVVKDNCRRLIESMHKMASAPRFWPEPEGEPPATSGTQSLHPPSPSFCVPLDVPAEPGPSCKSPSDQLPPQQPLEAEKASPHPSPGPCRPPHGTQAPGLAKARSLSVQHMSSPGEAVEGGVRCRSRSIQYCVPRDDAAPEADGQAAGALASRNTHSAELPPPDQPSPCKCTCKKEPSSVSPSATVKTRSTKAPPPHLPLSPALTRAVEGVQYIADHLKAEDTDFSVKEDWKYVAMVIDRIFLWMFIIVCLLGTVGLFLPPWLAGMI
Sequence of α4β2 nAChR from β-6-α-9-β-6-α alone (P17787 26-502): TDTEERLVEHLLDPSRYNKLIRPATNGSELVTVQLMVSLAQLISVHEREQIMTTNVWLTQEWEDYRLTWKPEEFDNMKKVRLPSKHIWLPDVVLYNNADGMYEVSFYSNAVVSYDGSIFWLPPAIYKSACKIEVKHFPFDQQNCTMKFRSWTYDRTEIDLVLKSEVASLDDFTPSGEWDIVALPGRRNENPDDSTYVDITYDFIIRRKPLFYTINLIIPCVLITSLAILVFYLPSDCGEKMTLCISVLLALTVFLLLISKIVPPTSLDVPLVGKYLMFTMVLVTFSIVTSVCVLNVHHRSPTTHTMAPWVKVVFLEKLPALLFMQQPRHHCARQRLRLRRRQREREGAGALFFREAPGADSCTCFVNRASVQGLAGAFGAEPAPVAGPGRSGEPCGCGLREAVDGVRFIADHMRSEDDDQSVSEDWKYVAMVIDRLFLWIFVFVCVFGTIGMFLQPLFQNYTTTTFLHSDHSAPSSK
Sequence of (α4^VFL)3(β2)2 nAChR from α4^VFL and β2 (10:1) (P43681 27-627 H142V/Q150F/T152L): as the sequence (P43681 27-627) above, with H116V, Q124F, T126L counted along it
Sequence of (α4^VFL)3(β2)2 nAChR from α4^VFL and β2 (10:1) (P17787 26-502): as the sequence (P17787 26-502) above
Sequence of α4β2 nAChR from β-3a-α and α4^VFL (1:1) (P17787 26-502): as above
Sequence of α4β2 nAChR from β-3a-α and α4^VFL (1:1) (P43681 27-627, stated change not applied): as the sequence (P43681 27-627) above
Sequence of α4β2 nAChR from β-3a-α and α4^VFL (1:1) (P43681 27-627 H142V/Q150F/T152L): as the sequence (P43681 27-627) above, with H116V, Q124F, T126L counted along it

Compound: N#Cc1cccc(-c2nc(-c3cccnc3)no2)c1 [NS9283, 3-(3-(pyridine-3-yl)-1,2,4-oxadiazol-5-yl)benzonitrile]
- EC50 [1]: 6.31 µM
- Emax ([1]; read-out: NS9283 Emax): 102 ± 10%
- NS9283 E31.6 µM ([1]; β-21a-α^VFL-α-β-α, […] NS9283 + 10 µM ACh, % change from AChcontrol current): 85 ± 10%
- EC50 ([2]; NS9283 pEC50, β-6-α-9-β-6-α + α4^VFL 1:5, coapplied with 10 µM ACh): 7.94 µM
- EC50 ([3]; NS9283 pEC50, β-3a-α + α4^VFL, coapplied with 10 µM ACh): 6.31 µM
- NS9283 E31.6 µM ([3]; β-3a-α + α4^VFL, […] NS9283 + 10 µM ACh, % change from AChcontrol current): 22 ± 3%
- EC50 [4]: 10 µM
- Emax ([4]; read-out: NS9283 Emax): 130 ± 30%
- NS9283 E31.6 µM ([4]; β-9a-α alone, […] NS9283 + 10 µM ACh, % change from AChcontrol current): 100 ± 20%
- EC50 ([5]; NS9283 pEC50, β-3a-α^VFL-β-α-α, coapplied with 10 µM ACh): 6.31 µM
- Emax ([5]; read-out: NS9283 Emax): 240 ± 20%
- NS9283 Emax ([6]; α4^VFL+β2 10:1, coapplied with 10 µM ACh): no positive efficacy; also recorded: No pos. pot
- NS9283 Emax ([7]; coapplied with 10 µM ACh): No hint of NS9283 enhancement; also recorded: No pos. pot
- Emax ([8]; read-out: NS9283 Emax): 13 ± 1%
- NS9283 E31.6 µM ([8]; β-3a-α-β-α-α^VFL, […] NS9283 + 10 µM ACh, % change from AChcontrol current): 11 ± 2%
- EC50 [9]: 5.01 µM
- Emax ([9]; read-out: NS9283 Emax): 910 ± 70%
- NS9283 E31.6 µM ([9]; β-21a-α-α-β-α, […] NS9283 + 10 µM ACh, % change from AChcontrol current): 780 ± 90%
- EC50 ([10]; NS9283 pEC50, β-9a-α + α4, coapplied with 10 µM ACh): 12.6 µM
- EC50 ([11]; NS9283 pEC50, β-21a-α-α^VFL-β-α, coapplied with 10 µM ACh): 10 µM
- Emax ([11]; read-out: NS9283 Emax): 75 ± 9%
- NS9283 E31.6 µM ([11]; β-21a-α-α^VFL-β-α, […] NS9283 + 10 µM ACh, % change from AChcontrol current): 55 ± 6%
- EC50 [12]: 7.94 µM
- Emax ([12]; read-out: NS9283 Emax): 800 ± 90%
- NS9283 E31.6 µM ([12]; β-3a-α-β-α-α, […] NS9283 + 10 µM ACh, % change from AChcontrol current): 640 ± 90%
- EC50 ([13]; NS9283 pEC50, β-6-α-9-β-6-α + α4^VFL 1:1, coapplied with 10 µM ACh): 10 µM
- EC50 [14]: 7.94 µM
- EC50 ([15]; NS9283 pEC50, β-3a-α^VFL-α-β-α, coapplied with 10 µM ACh): 7.94 µM
- Emax ([15]; read-out: NS9283 Emax): 340 ± 20%
- NS9283 E31.6 µM ([15]; β-3a-α^VFL-α-β-α, […] NS9283 + 10 µM ACh, % change from AChcontrol current): 270 ± 10%
- EC50 ([16]; NS9283 pEC50, β-6a-α + α4^VFL, coapplied with 10 µM ACh): 10 µM
- NS9283 E31.6 µM ([16]; β-6a-α + α4^VFL, […] NS9283 + 10 µM ACh, % change from AChcontrol current): 140 ± 10%
- EC50 [17]: 5.01 µM
- Emax ([17]; read-out: NS9283 Emax): 48 ± 5%
- NS9283 E31.6 µM ([17]; β-21a-α-β-α-α^VFL, […] NS9283 + 10 µM ACh, % change from AChcontrol current): 41 ± 4%
- NS9283 E31.6 µM [18, 22]: 210 ± 20%
- EC50 ([19]; NS9283 pEC50, β-9a-α + α4^VFL, coapplied with 10 µM ACh): 10 µM
- NS9283 E31.6 µM ([19]; β-9a-α + α4^VFL, […] NS9283 + 10 µM ACh, % change from AChcontrol current): 200 ± 10%
- EC50 [20]: 10 µM
- Emax ([20]; read-out: NS9283 Emax): 220 ± 30%
- NS9283 E31.6 µM ([20]; β-6-α-9-β-6-α alone, […] NS9283 + 10 µM ACh, % change from AChcontrol current): 170 ± 20%
- NS9283 E31.6 µM [21, 22]: 860 ± 100%

Compound: CC(=O)OCC[N+](C)(C)C [ACh, acetylcholine]
- Emax ([1]; read-out: ACh Emax): 104 ± 1%
- ACh Frac (first component fraction) ([1]; β-21a-α^VFL-α-β-α, biphasic fit): 0.44 ± 0.1
- ACh Frac (first component fraction) ([2]; β-6-α-9-β-6-α + α4^VFL 1:5, biphasic fit): 0.32 ± 0.13
- ACh Frac (first component fraction) ([3]; β-3a-α + α4^VFL, biphasic fit): 0.41 ± 0.06
- Emax ([4]; read-out: ACh Emax): 105 ± 3%
- ACh Frac (first component fraction) ([4]; β-9a-α alone, biphasic fit): 0.28 and 0.28 ± 0.05
- Emax ([5]; read-out: ACh Emax): 105 ± 1%
- ACh Frac (first component fraction) ([5]; β-3a-α^VFL-β-α-α, biphasic fit): 0.39 ± 0.05
- Emax ([6]; read-out: ACh Emax): 104 ± 2%
- ACh Frac (first component fraction) ([6]; α4^VFL+β2 10:1, biphasic fit): 0.71 ± 0.12
- ACh Frac (first component fraction) ([7]; biphasic fit): 0.28 ± 0.34
- Emax ([8]; read-out: ACh Emax): 104 ± 1%
- ACh Frac (first component fraction) ([8]; β-3a-α-β-α-α^VFL, biphasic fit): 0.53 ± 0.08
- Emax ([9]; read-out: ACh Emax): 100 ± 2%
- ACh Frac (first component fraction) ([9]; β-21a-α-α-β-α, biphasic fit): 0.060 ± 0.025
- ACh Frac (first component fraction) ([10]; β-9a-α + α4, biphasic fit): 0.13 ± 0.05
- Emax ([11]; read-out: ACh Emax): 102 ± 2%
- ACh Frac (first component fraction) ([11]; β-21a-α-α^VFL-β-α, biphasic fit): 0.46 ± 0.18
- Emax ([12]; read-out: ACh Emax): 102 ± 1%
- ACh Frac (first component fraction) ([12]; β-3a-α-β-α-α, biphasic fit): 0.11 ± 0.02
- ACh Frac (first component fraction) ([13]; β-6-α-9-β-6-α + α4^VFL 1:1, biphasic fit): 0.41 ± 0.09
- Emax ([14]; read-out: ACh Emax): 101 ± 1%
- mean AChmax-evoked currents ([14]; β-21a-α-β-α-α): ~2 μA
- ACh Frac (first component fraction) ([14]; β-21a-α-β-α-α, biphasic fit): 0.060 ± 0.011
- Emax ([15]; read-out: ACh Emax): 105 ± 4%
- ACh Frac (first component fraction) ([15]; β-3a-α^VFL-α-β-α, biphasic fit): 0.28 ± 0.10
- ACh Frac (first component fraction) ([16]; β-6a-α + α4^VFL, biphasic fit): 0.31 ± 0.14
- Emax ([17]; read-out: ACh Emax): 105 ± 1%
- ACh Frac (first component fraction) ([17]; β-21a-α-β-α-α^VFL, biphasic fit): 0.59 ± 0.07
- ACh Frac (first component fraction) ([18]; biphasic fit): 0.40 ± 0.08
- ACh Frac (first component fraction) ([19]; β-9a-α + α4^VFL, biphasic fit): 0.32 ± 0.09
- Emax ([20]; read-out: ACh Emax): 109 ± 5%
- ACh Frac (first component fraction) ([20]; β-6-α-9-β-6-α alone, biphasic fit): 0.45 and 0.45 ± 0.07
- ACh Frac (first component fraction) ([21]; biphasic fit): 0.073 ± 0.038
